One series addresses T1, CYP6Z3 (Anopheles gambiae, UniProt Q86LT6, H411Y/S209G/W396L).
T1 sequence (Q86LT6 1-492 S209G/W396L/H411Y): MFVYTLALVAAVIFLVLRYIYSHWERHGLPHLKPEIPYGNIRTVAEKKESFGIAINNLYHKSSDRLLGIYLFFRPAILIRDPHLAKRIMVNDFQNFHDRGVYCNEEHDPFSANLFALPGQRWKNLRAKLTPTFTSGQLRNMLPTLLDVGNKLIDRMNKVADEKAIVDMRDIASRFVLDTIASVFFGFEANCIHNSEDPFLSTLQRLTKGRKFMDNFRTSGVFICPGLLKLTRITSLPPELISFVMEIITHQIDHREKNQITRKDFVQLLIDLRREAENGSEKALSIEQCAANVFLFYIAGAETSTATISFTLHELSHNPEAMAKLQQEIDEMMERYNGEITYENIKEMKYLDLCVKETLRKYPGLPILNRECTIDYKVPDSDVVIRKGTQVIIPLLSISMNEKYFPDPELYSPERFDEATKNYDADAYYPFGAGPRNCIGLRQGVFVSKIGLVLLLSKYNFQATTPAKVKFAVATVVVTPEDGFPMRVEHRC
T1 sequence (Q86QH5 1-679 partner): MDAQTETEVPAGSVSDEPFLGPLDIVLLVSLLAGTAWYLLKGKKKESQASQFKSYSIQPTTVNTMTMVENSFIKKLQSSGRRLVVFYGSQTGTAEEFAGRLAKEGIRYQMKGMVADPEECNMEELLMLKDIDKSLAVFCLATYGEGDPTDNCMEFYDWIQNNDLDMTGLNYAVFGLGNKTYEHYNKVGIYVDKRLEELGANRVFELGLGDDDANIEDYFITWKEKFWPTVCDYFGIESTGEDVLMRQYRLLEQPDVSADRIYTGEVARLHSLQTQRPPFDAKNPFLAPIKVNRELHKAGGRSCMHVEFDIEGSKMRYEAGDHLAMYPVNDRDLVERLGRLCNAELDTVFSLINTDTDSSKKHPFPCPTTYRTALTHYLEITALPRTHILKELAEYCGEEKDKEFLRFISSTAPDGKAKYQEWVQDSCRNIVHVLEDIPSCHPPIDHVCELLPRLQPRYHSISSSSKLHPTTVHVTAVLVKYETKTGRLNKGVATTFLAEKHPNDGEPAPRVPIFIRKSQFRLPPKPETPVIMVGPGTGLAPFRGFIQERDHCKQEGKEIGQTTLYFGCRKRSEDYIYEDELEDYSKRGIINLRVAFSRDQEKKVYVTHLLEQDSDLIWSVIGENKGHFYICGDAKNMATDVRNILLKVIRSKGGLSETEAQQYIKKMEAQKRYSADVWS
Put plainly: Inhibition screening of pyrethroids, diethoxyfluorescein, CYP6Z3. It counts as biochemical. The source says:
Cytochrome P450 inhibition assays using fluorogenic probe substrates have become commonplace in drug discovery screening cascades and are a rapid method of screening for insecticide interactions with mosquito P450s to predict insecticide binding, metabolism, cross-resistance and synergism. In this study, the half maximal inhibitory concentration (IC50), which provides a value for inhibition of each P450 by each pyrethroid (also referred to as ‘binding affinity’), and the percentage depletion, which gives a value for metabolism of each pyrethroid by each P450 (also referred to as vulnerability to metabolic attack), were both included as parameters to establish a P450s structural activity relationship model. This model was used to understand both the chemistry of the pyrethroids and the interaction with mosquito P450s that function as monooxygenases in metabolic resistance, to predict cross-resistance liabilities in vivo. […] A low percentage depletion indicates low metabolism of the pyrethroid, which means that it may be less vulnerable to resistance mediated by P450s.
In addition, inhibition activity data for these pyrethroids exposed to CYP6Z3 from the An. gambiae Kisumu strain were also generated (Additional file 1).
1. Preparation of An. gambiae CYP6Z3 and cloning
Total RNA was extracted with Arcturus PicoPure Kit (Applied Biosystems, USA) from ten adult An. gambiae mosquitoes from the Kisumu strain [1]. Complementary DNA was prepared using Superscript III (Invitrogen) with an oligo (dT)20 primer and used as a template for amplifying full -length AgCyp6z3 with KOD DNA polymerase (Merk Chemicals) . The gene-specific primers used in these high -fidelity PCRs (Table S1) were designed according to the reference An. gambiae PEST CYP6Z3 genome sequence (Accession number AY193727) The PCR product was ligated into pGEM T-easy vector (Promega) and sequenced on both strands. Consistent with the high frequency of polymorphism in An. gambiae P450s [2](Martin Nature Ref) there were 36 single nucleotide polymorphism (SNPs) compared with the reference sequence, of which three produced amino acid changes, S209G, W396L, and H411Y. For expression, the ompA leader sequence (ompA) was engineered onto the amino - terminus of the AgCyp6z3 gene to direct the P450 into the E. coli […] during expression as previously described. The ompA-leader was fused to AgCyp6z3 cDNA in frame with AgCyp6z3 initiation codon by fusion PCR using High fidelity Phusion polymerase (Scientific). The ompA AgCyp6z3 fusion was flanked at the 5′ and 3′ ends with NdeI and EcoR1, respectively for ligation into NdeI/EcoRI linearised pB13 (pCWori+).
Table S1. Primers used for amplification of CYP6Z3 and in vitro functional characterisation […]
ompA+2 Forward […]
ompA+2 CYP6Z3 fusion […]
2. Preparation of membranes expressing P450 and AgCPR
To express functional P450, AgCyp6z3 cloned into pB13 plasmid was co-transformed into E. coli JM109 cells with An. gambiae NADPH-cytochrome P450 reductase (AgCPR-pACYC). The P450 and the AgCPR were previously fused with ompA and pelB leader sequences respectively to direct the expressed proteins to the inner bacterial periplasm in order to form functional monooxygenase complex. For P450 production, 200 mL E. coli cultures in Terrific Broth were incubated at 21°C with shaking at 120 RPM for 18–24 h after induction with 1 mM IPTG. Following expression, E. coli membranes containing CYP6Z3 were isolated and P450 and AgCPR content measured as previously described. Samples were stored in aliquots of 100 µL at −80°C. An. gambiae cytochrome b5 was prepared as described previously to supplement enzyme reactions at an 8:1 M ratio, b5: P450 [4].
3. Inhibition screening of pyrethroids.
Inhibition screening of pyrethroid inhibitors and IC50 calculations carried out according Yunta et al. […]

The subject of another series is CYP6P3. Particulars: Incubation time 2h; mean ± SD; ref [38], [41]; cited from earlier work.

Take `CC1(C)[C@H](C(=O)O[C@H](C#N)c2cccc(Oc3ccccc3)c2)[C@@H]1/C=C(\Cl)C(F)(F)F` (racemic) [λ-Cyhalothrin, λ-cyhalothrin]: the IC50 (as a rule, the concentration needed to halve the response being measured) at CYP6Z3 amounted to 3.3 µM. Further, the “% Insecticide depletion CYP6P3” value in the series with CYP6P3 was 83.3 ± 15.4%.
`Cc1c(COC(=O)[C@@H]2[C@H](/C=C(\Cl)C(F)(F)F)C2(C)C)cccc1-c1ccccc1` (racemic) [Bifenthrin, bifenthrin]: the IC50 at CYP6Z3 is 17 µM. Also, the “% Insecticide depletion CYP6P3” value with CYP6P3 is 76.7 ± 0.3%.
As for `CCOc1ccc(C(C)(C)COCc2cccc(Oc3ccccc3)c2)cc1` [Etofenprox, etofenprox], on CYP6Z3, the IC50 worked out at 4.8 µM. Also, in the series on CYP6P3, the “% Insecticide depletion CYP6P3” value was 99.8 ± 0.3%.
Regarding `CC1(C)C(C=C(Cl)Cl)C1C(=O)OCc1cccc(Oc2ccccc2)c1` (stereo not drawn) [Permethrin, permethrin], the IC50 on CYP6Z3 was determined as 3.7 µM. In addition, the “% Insecticide depletion CYP6P3” value in the series with CYP6P3 is reported as 100.0 ± 0.0%.
For the molecule `CC1(C)[C@H](C(=O)O[C@H](C#N)c2cccc(Oc3ccccc3)c2)[C@@H]1C=C(Br)Br` [Deltamethrin, deltamethrin], at CYP6Z3, the IC50 was 3.4 µM.

Values taken from paper PMC7893915, “Assessing cross-resistance within the pyrethroids in terms of their interactions with key cytochrome P450 enzymes and resistance in vector populations” (Parasites & Vectors, 2021).
